Values quoted from earlier work in paper doi:10.1101/2024.08.20.608791v1 (bioRxiv, 2024).

Conditions: humans

| Compound | fraction absorbed (fa) of approved oral drugs [%] |
| --- | --- |
| CO[C@H]1C[C@H](O[C@H]2CC[C@]3(C=O)[C@H]4CC[C@]5(C)[C@@H](C6=CC(=O)OC6)CC[C@]5(O)[C@@H]4CC[C@]3(O)C2)O[C@H](C)[C@H]1O[C@@H]1O[C@H](CO[C@@H]2O[C@H](CO)[C@@H](O)[C@H](O)[C@H]2O)[C@@H](O)[C@H](O)[C@H]1O [k-strophanthoside] | 16 |

Same assay, conditions: oral, humans; compounds without fa values in man, estimate or proposal only

| estimated / proposed fa | Compound |
| --- | --- |
| zero | CC1(C)S[C@@H]2[C@H](NC(=O)[C@H](NC(=O)N3CCN(S(C)(=O)=O)C3=O)c3ccccc3)C(=O)N2[C@H]1C(=O)O [mezlocillin] |
| > 15% | C=CC[C@@H]1/C=C(\C)C[C@H](C)C[C@H](OC)[C@H]2O[C@@](O)(C(=O)C(=O)N3CCCC[C@H]3C(=O)O[C@H](/C(C)=C/[C@@H]3CC[C@@H](O)[C@H](OC)C3)[C@H](C)[C@@H](O)CC1=O)[C@H](C)C[C@@H]2OC [tacrolimus] |

Conditions: not able to quantify in an in vitro permeability assay (≤LOQ)

| in vitro permeability, not able to quantify | Compound |
| --- | --- |
| ≤ LOQ | COC(=O)N[C@H](C(=O)N1CCC[C@H]1C(=O)Nc1ccc([C@@H]2CC[C@@H](c3ccc(NC(=O)[C@@H]4CCCN4C(=O)[C@@H](NC(=O)OC)C(C)C)cc3)N2c2ccc(C(C)(C)C)cc2)cc1)C(C)C [Ombitasvir] |

Conditions: <LOQ

| solubility in water (in words) | Compound |
| --- | --- |
| practically insoluble in water | CC[C@H]1OC(=O)[C@H](C)[C@@H](O[C@H]2C[C@@](C)(OC)[C@@H](O)[C@H](C)O2)[C@H](C)[C@@H](O[C@@H]2O[C@H](C)C[C@H](N(C)C)[C@H]2O)[C@](C)(O)C[C@@H](C)CN(C)[C@H](C)[C@@H](O)[C@]1(C)O [Azithromycin] |
| practically insoluble in water | COC(=O)N[C@H](C(=O)N1CCC[C@H]1c1nc(-c2ccc3c(c2)O[C@@H](c2ccccc2)n2c-3cc3cc(-c4c[nH]c([C@@H]5CCCN5C(=O)[C@@H](NC(=O)OC)C(C)C)n4)ccc32)c[nH]1)C(C)C [elbasvir] |
| practically insoluble in water | CO[C@H]1C[C@@H]2CC[C@@H](C)[C@@](O)(O2)C(=O)C(=O)N2CCCC[C@H]2C(=O)O[C@H]([C@H](C)C[C@@H]2CC[C@@H](OCCO)[C@H](OC)C2)CC(=O)[C@H](C)/C=C(\C)[C@@H](O)[C@@H](OC)C(=O)[C@H](C)C[C@H](C)/C=C/C=C/C=C/1C [everolimus] |
| practically insoluble in water | CO[C@H]1C[C@@H]2CC[C@@H](C)[C@@](O)(O2)C(=O)C(=O)N2CCCC[C@H]2C(=O)O[C@H]([C@H](C)C[C@@H]2CC[C@@H](OP(C)(C)=O)[C@H](OC)C2)CC(=O)[C@H](C)/C=C(\C)[C@@H](O)[C@@H](OC)C(=O)[C@H](C)C[C@H](C)/C=C/C=C/C=C/1C [ridaforolimus] |
| practically insoluble in water | CO[C@H]1/C=C/O[C@@]2(C)Oc3c(C)c(O)c4c(O)c(c5c(nc6cc(C)ccn65)c4c3C2=O)NC(=O)/C(C)=C\C=C\[C@H](C)[C@H](O)[C@@H](C)[C@@H](O)[C@@H](C)[C@H](OC(C)=O)[C@@H]1C [rifaximin] |
| practically insoluble in water | bivalirudin |
| practically insoluble in water | quinupristin |
| practically insoluble in water | voclosporin |

Conditions: as reported in Table 1 and text; source and method not stated

| log P | Compound |
| --- | --- |
| 5.7 | COC(=O)N[C@H](C(=O)N1CCC[C@H]1C(=O)Nc1ccc([C@@H]2CC[C@@H](c3ccc(NC(=O)[C@@H]4CCCN4C(=O)[C@@H](NC(=O)OC)C(C)C)cc3)N2c2ccc(C(C)(C)C)cc2)cc1)C(C)C [Ombitasvir] |
| 5.2 | CC(C)c1nc(CN(C)C(=O)N[C@H](C(=O)N[C@@H](Cc2ccccc2)C[C@H](O)[C@H](Cc2ccccc2)NC(=O)OCc2cncs2)C(C)C)cs1 [Ritonavir] |
| 4.8 | CN1Cc2c(Cl)cc(Cl)cc2[C@H](c2cccc(S(=O)(=O)NCCOCCOCCNC(=O)NCCCCNC(=O)NCCOCCOCCNS(=O)(=O)c3cccc([C@@H]4CN(C)Cc5c(Cl)cc(Cl)cc54)c3)c2)C1 [Tenapanor] |
| 9.3 | COc1cc(F)c(C(C)C)cc1-c1ccc(C(F)(F)F)cc1CN1C(=O)O[C@H](c2cc(C(F)(F)F)cc(C(F)(F)F)c2)[C@@H]1C [anacetrapib] |
| -2.3 | Teicoplanin A2 1 |

| Compound | log P |
| --- | --- |
| Neomycin | -6.6 |
